# According to the supplement of paper PMC11208160:
# Assay: recombinant barcode read abundance after kanamycin selection (control-corrected) (log10(CPM+1)); higher = more efficient recombination; sequences stand for … in AGTGCAGAGAAAATCGGCCAGTTTTCTCTGCCTGCAGTCCGCATGCCGT…AGATTTATGCAGCGGACTGCCTTTCTCCCAAAGTGATAAACCGGACAGTATCATGGACCGGTTTTCCCGGTAATCCGTATTTGCAAGGTTGGTTTCACT; site = the 11-nt target
# How it was run: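 A promoter, a target, a barcode and the first 104 bridge RNA bases under J23119 made up each oligo. Oligos were Gibson-cloned into a vector bearing the other 73 bp and a T7-inducible recombinase, then co-electroporated into E. coli with a donor plasmid and plated in duplicate on chloramphenicol/ampicillin LB agar (control) or chloramphenicol/ampicillin/kanamycin with 0.1 mM IPTG. Recombination efficiency is the averaged, control-corrected counts per million of recombinant-junction barcodes. Reported values are log10(CPM+1).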
# 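Note: IS621 recombinase and bridge RNA in Escherichia coli cells.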
row,Sequence,recombinant barcode read abundance (log10)
1,GTTTAATCTTGGGTTCTAACCTGTTGCCT (site GTTTAATCTAG),0.216
2,GTTTAATCTTGGGTTCTAACCTGTTGCCT (site GTTTAGTCTAG),0.233
3,GTTTATACTTGGGTTCTAACCTGTTGCCA (site AGAGTAGCTGT),0.0898
4,GTTTATACTTGGGTTCTAACCTGTTGCCA (site GTTTATACTTG),0.41
5,GTTTCACCTTGGGTTCTAACCTGTTGCCT (site GTTACACCTAG),0.128
6,GTTTCACCTTGGGTTCTAACCTGTTGCCT (site GTTTCACCTAG),0.491
7,GTTTCGACTTGGGTTCTAACCTGTTGCCT (site GTTTCGACTAG),0.128
8,GTTTCGACTTGGGTTCTAACCTGTTGCCT (site GTTTCGTCTAG),0.173
9,GTTTCGACTTGGGTTCTAACCTGTTGCTA (site GTTTCGACTTA),0.238
10,GTTTCGACTTGGGTTCTAACCTGTTGCTA (site TCGGATGCTAT),0.188
11,GTTTCGGCTTGGGTTCTAACCTGTTGCCT (site GTTACGGCTAG),0.041
12,GTTTCGGCTTGGGTTCTAACCTGTTGCCT (site GTTCCGGCTAG),0.357
13,GTTTCGGCTTGGGTTCTAACCTGTTGCCT (site GTTGCGGCTAG),0.101
14,GTTTCGGCTTGGGTTCTAACCTGTTGCCT (site GTTTCGGCTAG),0.342
15,GTTTGGCCTTGGGTTCTAACCTGTTGCTT (site GTTTGACCTAA),0
16,GTTTGGCCTTGGGTTCTAACCTGTTGCTT (site GTTTGCCCTAA),0.154
17,GTTTGGCCTTGGGTTCTAACCTGTTGCTT (site GTTTGGCCTAA),0.541
18,GTTTGGCCTTGGGTTCTAACCTGTTGCTT (site GTTTGTCCTAA),0.167

row,Sequence,recombinant barcode read abundance (log10)
1,TAAAACCCTTGGGTTCTAACCTGTTGCAT (site CCGCGGACTTA),0.15
2,TAAAACCCTTGGGTTCTAACCTGTTGCAT (site TAAAACCCTAT),0.713
3,TAAAAGGCTTGGGTTCTAACCTGTTGCCT (site TAAAAGACTAG),0.102
4,TAAAAGGCTTGGGTTCTAACCTGTTGCCT (site TAAAAGCCTAG),0.0288
5,TAAAAGGCTTGGGTTCTAACCTGTTGCCT (site TAAAAGGCTAG),0.0132
6,TAAAAGGCTTGGGTTCTAACCTGTTGCCT (site TAAAAGTCTAG),0.142
7,TAAAATACTTGGGTTCTAACCTGTTGCCT (site TAAAATACTAG),0.1
8,TAAAATACTTGGGTTCTAACCTGTTGCCT (site TAGATTACTAG),0.272
9,TAACACTCTTGGGTTCTAACCTGTTGCTT (site GAACACTCTCA),0.105
10,TAACACTCTTGGGTTCTAACCTGTTGCTT (site TAACACTCTAA),1.51
11,TAACGTACTTGGGTTCTAACCTGTTGCAT (site TAACATACTAT),0.0677
12,TAACGTACTTGGGTTCTAACCTGTTGCAT (site TAACCTACTAT),0.135
13,TAACGTACTTGGGTTCTAACCTGTTGCAT (site TAACGTACTAT),0.696
14,TAACGTACTTGGGTTCTAACCTGTTGCAT (site TAACTTACTAT),0.103
15,TAACTAGCTTGGGTTCTAACCTGTTGCTA (site GTGTATACTAT),0.212
16,TAACTAGCTTGGGTTCTAACCTGTTGCTA (site TAACTAGCTTA),0.141
17,TAAGGAGCTTGGGTTCTAACCTGTTGCCT (site TAAGGAGCTAG),1.39
18,TAAGGAGCTTGGGTTCTAACCTGTTGCCT (site TAGGGCGCTAG),0.0289
